Results: patent publication US20240385182A1, “MASKED FLUOROGENIC LIPID COMPOUNDS, LIPID PARTICLES COMPRISING THE SAME, AND METHODS OF USE THEREOF” (Rutgers, The State University of New Jersey, priority 2023, published 2024)

What was measured:
HeLa cells = assay: Confocal imaging and colocalization in live HeLa cells; format: cell-based; settings: LNPs, no stimulation
Procedure: FIGS. 9A-9E: confocal imaging of lipid environments targeted by ONOO^− in live HeLa cells. Cells were seeded into glass microscope dishes, incubated with LNPs (50 μM) and stained with organelle trackers and/or actin dye prior to imaging. LNPs obtained from a 47.5:47.5:5.0 molar ratio of DOTMA, DOPE, and DPPC-TC-ONOO^−. FIG. 9A: cells treated with LNPs, stimulated with IFN-γ/LPS/PMA. Time coarse images acquired upon PMA treatment. FIG. 9B: cells treated with LNPs and 1400 W. FIG. 9C: cells treated with LNPs, then with 1400 W and IFN-γ/LPS/PMA. FIGS. 9D-9E: quantitative colocalization study of cells treated with LNPs and stimulated with IFN-γ/LPS/PMA. Pearson's correlation coefficient (PCC) was calculated for quantitative assessment. Organelle trackers: ER-Tracker™, MitoTracker™, CellLight™ Golgi-RFP, LysoTracker™. Cell cytoskeleton was assessed with CellMask™ Deep Red Actin Tracking Stain. DPPC-TC channel: 405/475 nm. Scale bars=20 μm (FIGS. 9A-9D) or 5 μm (FIG. 9E). With the utility of DPPC-TC-ONOO^− proven in synthetic protocell membranes, incorporation into live HeLa and RAW 264.7 cells was sought, which are relevant to redox-induced stress and have well-recognized pathways for RNS and ROS production. Lipid nanoparticles (LNPs) (˜100 nm in diameter) was used to deliver DPPC-TC-ONOO− into cells. This method circumvented the limited solubility of DPPC-TC-ONOO− due to the relatively hydrophobic butanone-coumarin motif. LNPs were obtained via sonication from 1,2-di-O-octadecenyl-3-trimethylammonium propane (DOTMA), 1,2-dioleoyl-sn-glycero-3-phosphoethanolamine (DOPE), and DPPC-TC-ONOO− (47.5:47.5:5.0 molar ratio), which were hydrated with a 300 mM sucrose solution. DOTMA and DOPE were chosen as the carrier lipids due to their cationic/zwitterionic natures, which has been postulated to enhance uptake through the cell membrane. The impact of different LNP compositions and incubation times on the cellular incorporation of DPPC-TC-ONOO^− was assessed. […] Specifically, LNPs containing greater than 10 mol % DPPC-TC-ONOO− were considerably more heterogenous in size (up to […] observed, in contrast to ˜100 nm) and nonuniform in vesicle lamellarity. Those with less than 4 mol % DPPC-TC-ONOO− led to insufficient fluorescence signal. To balance these counteracting factors, 5 mol % DPPC-TC-ONOO− was used, with 47.5 mol % DOTMA and DOPE, each. In these initial assays, cells were incubated with LNPs for up to 15 hours to complete the uptake and intracellular localization of DPPC-TC-ONOO−. Shorter incubation times (3-to-5 hours) led to its uptake but not subcellular localization. […] However, high serum concentration in DMEM caused interference between LNPs and serum-protein, resulting in aggregate formation as observed by microscopy. To overcome this obstacle, LNPs (50 μM) were used in a mixture of 2/3 volumetric ratio of sucrose solution and Opti-MEM™, a reduced serum medium known to increase the efficiency of lipofection. […] For a physiologically relevant stress model, the standard stimulation condition involving IFN-γ/LPS/PMA was employed. Treatment of cells with IFN-γ/LPS leads to the endogenous production of nitric oxide and PMA provokes increased levels of superoxide. These two reactive species combine to form peroxynitrite, as described elsewhere herein. […] The intracellular redox selectivity of DPPC-TC-ONOO^− was also assessed using N-(3-(aminomethyl)benzyl)-acetamidine, known as 1400 W, which inhibits the production of NO· by irreversibly binding to iNOS. […] To determine whether DPPC-TC-ONOO^− localizes and functions at a specific subcellular compartment in HeLa, a comprehensive colocalization study was performed with dyes specific for lipid-rich and membrane-enclosed organelles, including the ER, mitochondrion, Golgi apparatus, and lysosome (FIGS. 9D-9E). In addition, actin stain was used to gain a visual insight into the cytoskeletal structure of the whole cell. […]

HeLa and RAW 264.7 cells = assay: MTT cell viability assay; format: cell-based; settings: 8-250 μM, 24-hour period
Procedure: With a feasible liposome preparation and treatment protocol established for live cell imaging, attention was turned to assessing the cytocompatibility of the LNPs, with or without DPPC-TC-ONOO^−, DPPC-TC, and the oxa-spiro[4,5] decenone 6a. A standard 3-(4,5-dimethylthiazol-2-yl)-2,5-diphenyl tetrazolium bromide (MTT) cell viability assay in HeLa and RAW 264.7 cells treated with these molecules (8-250 μM) over a 24-hour period. The dose-response curves provided high IC50 values for each compound: DPPC-TC-ONOO− (≥100 μM), DPPC-TC (≥50 μM), and 6 (≥70 μM).

[1] = Photophysical characterization of probes and uncaged forms (relative fluorescence quantum yield, extinction coefficient, brightness); format: physicochemical; settings: for Brightness: in M⁻¹·cm⁻¹ (unit assumed); for Quantum Yield (relative fluorescence quantum yield ΦFrel): standard coumarin 343
Procedure: The pKa of TEG-TC was determined to be 7.1±0.1 using UV-Vis spectrophotometric measurements. Under the confocal imaging conditions (pH 7.5-8.5 with cell-free assays, pH 7.4 with cells), a substantial population of the 7-hydroxycoumarin should exist in its aryloxide form. The change in coumarin fluorogenicity was assessed upon uncaging the probes from the oxobutylphenyl carbonate by measuring the relative fluorescence quantum yield (ΦFrel) values (Table 2). Coumarin 343 was used as a standard, which has an absolute fluorescence quantum yield ([…]) of 0.63 in ethanol. The ΦFrel values of TEG-TC-ONOO^− (entry 1) and DPPC-TC-ONOO^− (entry 3) were measured as 0.08 and 0.09, respectively. […] The ΦFrel values for TEG-TC (entry 2) and DPPC-TC (entry 4), which were synthesized independently, were measured as 0.66 and 0.64, respectively.
Next, the impact of caging and uncaging of the coumarin or fluorescein moieties on their fluorogenicity was assessed by measuring the relative fluorescence quantum yield (ΦFrel) values (Table 3). Coumarin 343 was used as the standard for measuring ΦFrel of the triazole-coumarin compounds (TEG-TC-H2S, TEG-TC, DPPC-TC-H2S, and DPPC-TC) whereas fluorescein for the triazole-fluorescein compounds (TEG-TF-H2O2, TEG-TF, and DPPC-TF-H2O2, and DPPC-TF). Relative to coumarin 343, whose absolute fluorescence quantum yield (ΦF) is 0.63 in ethanol, ΦFrels of the H2S probes TEG-TC-H2S (entry 1) and DPPC-TC-H2S (entry 3) were determined to be 0.07 and 0.03, respectively.
The pKa of TEG-TC was previously found to be to be 7.1±0.1 using UV-Vis spectrophotometric measurements. Under the fluorescence activation assay conditions that are employed here (Tris 50 mM, pH 7.5), a substantial population of the coumarin moiety is expected to be in its aryloxide anion form. Relative to fluorescein, whose ΦF is 0.79 in ethanol, ΦFrel values of the H2O2 probes TEG-TF-H2O2 (entry 5) and DPPC-TF-H2O2 (entry 7) were determined to be 0.04 and 0.02, respectively.

[2] = Specificity of TEG-TC-H2S against other RSS
Procedure: (§1) The redox-specificities of the non-amphiphilic probes, TEG-TC-H2S or TEG-TF-H2O2, were assessed by subjecting them to various RSS or ROS (FIGS. 13A-13B). Change in fluorescence intensity following excitation of each sample containing the respective probe was measured over 120 minutes of incubation and presented based on the signal-to-background ratio F/F0, where F and F0 are defined as the fluorescence with and without the redox species. The F/F0 of the untreated samples were set to 1 for comparisons. […] Samples containing TEG-TF-H2O2 and treated with 100 μM H2O2 presented a steady fluorescence enhancement within 2 hours, resulting in 4.4-fold higher fluorescence than those of the untreated samples (FIG. 13B).
(§2) The specificity of TEG-TC-H2S toward H2S was evaluated by comparing its reactivity against different RSS, cysteine (Cys), glutathione (GSH), sulfite (SO3^2−), and thiosulfate (S2O3^2−). At 1 mM initial concentration and a total incubation time of 2 hours, these sulfur species induced an increase in coumarin fluorescence by less than 25% compared to the untreated sample (FIG. 13A). […] The specificity of TEG-TF-H2O2 toward H2O2 was also assessed, by incubating the samples containing TEG-TF-H2O2 with 100 μM either hydroxyl radical (·OH), nitric oxide (NO), or superoxide radical (O2·^−) for 2 hours. […]

[3] = Fluorescence activation and LoD of TEG-TC-H2S with H2S in Tris buffer
Procedure: FIGS. 13A-13D: specificity (FIGS. 13A-13B) and limit of detection (LoD) (FIGS. 13C-13D) of TEG-TC-H2S and TEG-TF-H2O2. LoD measurements for the probes TEG-TC-H2S (390/475 nm) and TEG-TF-H2O2 (485/525 nm) were performed in Tris buffer (50 mM, pH 7.5). Error bars represent the standard deviation; n=3. Single-tailed Student's t test: *, P<0.05; **, P<0.01; ***, P<0.001; ****, P<0.0001.
as §1
as §2, with “hours. Among these three reactive oxygen species, ·OH induced the highest fluorescence increase (2.2-fold), which was lower than that for H2O2 (4.4-fold). The relatively low yet observable reactivity of ·OH may have been due, in large part, to the residual unreacted H2O2 used for generating ·OH.” for “hours.”

[4] = Table 3, brightness compared to that of DPPC-TC-H2S

IC50 (HeLa and RAW 264.7 cells) | Emmax [1] | Exmax [1] | Ext. Coeff. [1] | enhanced brightness, uncaging product vs caged probe [1] | Relative Brightness ([1]; Table 2, DPPC-TC-ONOO^− = 1.0) | Relative Brightness [1, 4] | Brightness [1] | Quantum Yield (relative fluorescence quantum yield ΦFrel) [1] | SMILES | fluorescence at 405/475 nm (HeLa cells) | fluorescence activation in the presence of H2S compared to the other RSS [2] | increase in coumarin fluorescence compared to the untreated sample ([2]; Cys, GSH, SO3^2−, S2O3^2− at 1 mM, 2 hours) | fluorescence compared to the sample untreated ([3]; 1 mM H2S, 2 hours of incubation, Tris pH 7.5) | increase in fluorescence intensity ([3]; H2S 1 mM, 2 hours) | LoD ([3]; minimum H2S concentration at which F is statistically higher than F0, 390/475 nm, Tris 50 mM pH 7.5)
≥ 50 µM | 472.0 nm | 398.0 nm | 13749 M⁻¹ cm⁻¹ | 120 fold | 35.1 | 122.2 | 8799 | 0.64 | CCCCCCCCCCCCCCCC(=O)OCC(COP(=O)([O-])OCC[N+](C)(C)Cc1cn(-c2cc3ccc(O)cc3oc2=O)nn1)OC(=O)CCCCCCCCCCCCCCC (racemic) [DPPC-TC] | strong coumarin fluorescence | – | – | – | – | –
– | 475.5 nm | 392.3 nm | 5347 M⁻¹ cm⁻¹ | – | – | 5.2 | 374 | 0.07 | [N-]=[N+]=Nc1ccc(COc2ccc3cc(-n4cc(COCCOCCOCCO)nn4)c(=O)oc3c2)cc1 [TEG-TC-H2S] | – | ≥ 5 fold | less than 25% | 2.2 fold | 120% | 100 µM
